Experimental data published in paper PMC8370201, “Amaryllidaceae Alkaloid Cherylline Inhibits the Replication of Dengue and Zika Viruses” (Antimicrobial Agents and Chemotherapy, 2021).

Legend:
DENV2 16881s = assay: Plaque assay, infectious titers of WT DENV2 16881s from Huh7.5 cells; assay type: cell-based, dengue virus (DENV); conditions: AAs 50 μM, treated 2 hpi, supernatant 48 h later
Experimental: Huh7.5 cells were infected with DENV 16881s, ZIKV H/PF/2013, or ZIKV MR766 (MOI, 0.1) or left uninfected. […] Supernatants were harvested 2 days pi, and PFU were determined by plaque assay on VeroE6 cells. Cells incubated overnight (2 × 10^5 cells/well in 24-well plates) were infected with 10-fold serially diluted virus-containing supernatants for 2 h at 37°C. Inoculum was then replaced with MEM (Life Technologies) containing 1.5% carboxymethylcellulose (Millipore-Sigma). ZIKV- and DENV-infected cells were incubated for 5 and 7 days, respectively. One volume of 10% formaldehyde was added to the cells for fixation. Two hours later, cells were washed with tap water and stained with a 1% crystal violet/10% ethanol solution for 30 min. Wells were rinsed with tap water, and the number of plaques were counted to calculate virus titers.

ZIKV MR766 = assay: Plaque assay, infectious titers of WT ZIKV MR766 from Huh7.5 cells; assay type: cell-based, Zika virus (ZIKV); conditions: treated 2 hpi, supernatant 48 h later
ZIKV H/PF/2013 = assay: Plaque assay, infectious titers of WT ZIKV H/PF/2013 from Huh7.5 cells; assay type: cell-based, Zika virus (ZIKV); conditions: treated 2 hpi, supernatant 48 h later
PBMCs = assay: Cytotoxicity in PBMCs (ATP); assay type: cell-based, human; conditions: 48 h posttreatment, cherylline 30 μM
Experimental: (§1) Where indicated for Huh7.5 and Vero E6 cells and PBMCs, cell viability was measured by monitoring of cellular ATP levels using the Cell-Titer GLO assay kit (Promega). Briefly, 10× 10^3 to 20 × 10^3 cells in 50 to 100 μl were seeded in 48-well or 96-well plates and cultured overnight. AAs were added at the designated concentrations for 24 or 48 h, as specified in the text. Then, 50 to 100 μl of room temperature Cell-Titer GLO reagent was added in each well to room temperature-equilibrated cell plates. Plates were rocked for 2 min and rested for 10 min, and the luminescence signal was measured using a microplate spectrophotometer (Biotek Synergy H1 or Tecan Spark multimode microplate reader). Viability was expressed as a fold change calculated using the value of DMSO-treated cells at each concentration; for each AA and CC50, values were determined.

DENVGFP [1] = assay: Time-of-drug-addition and -removal assays, DENVGFP in Huh7 cells; assay type: cell-based, dengue virus (DENV); conditions: NITD008 10 μM
Experimental: For the time-of-drug-addition assay, at the time of infection, AAs were added in wells corresponding to 0 h. At 2 hpi, viral inoculum was removed from every well, and AAs were added back to wells corresponding to 0 h and 2 h. At 4, 7, 12, and 24 hpi, AAs or DMSO diluted in DMEM was added to the appropriate wells. After 72 h, cells were trypsinized and fixed in 4% formaldehyde to measure the percentage of infected cells on an FC500 MPL cytometer. Alternatively, pictures of Hoechst 33342-stained cells were acquired on an Axio Observer microscope. All assays were performed in triplicate.
At 2 hpi, plates were washed, and medium was replaced to remove remaining viruses in the supernatant. AAs were added back to all wells, except the ones corresponding to 2 h of treatment, in which fresh medium exclusive of any AA was added. Accordingly, after 4, 7, and 12 h of infection, the supernatant was replaced by fresh medium in corresponding wells. After 72 h of incubation, results were acquired as for the time-of-drug-addition assay. All assays were performed in triplicate.

DENV = tested on: DENV; set-up: method as in PMID 20496087; conditions: read-out: EC50, inhibition of DENV; cited from earlier work
DENVGFP [2] = assay: DENVGFP reporter virus infection of Huh7 cells (flow cytometry / microscopy); conditions: Huh7, treated 2 h before DENVGFP MOI 0.15, 72 hpi, at the chosen concentration
[3] = Cell viability (ATP, Cell-Titer GLO) in Huh7.5 cells; assay type: cell-based; conditions: human, Huh7.5 cells; Huh7.5, ATP, 48 h posttreatment; read-out: CC50
Experimental: as §1

ZIKV NS5 RdRp = tested on: ZIKV NS5 RdRp; set-up: method as in PMID 32452420; conditions: 100 μM; cited from earlier work
West Nile virus NS5 = tested on: West Nile virus NS5; set-up: method as in PMID 19062063; conditions: cited from earlier work
DENVR2A [4] = conditions: CC50/EC50, Huh7.5
ZIKVR2A [5] = assay: microbe, parasite or virus in culture; conditions: Zika virus, Huh7.5, read-out: EC50 (μM) for ZIKVR2A, Huh7.5 cells, luciferase at 48 hpi
ZIKVR2A [6] = conditions: CC50/EC50, Huh7.5
DENVR2A [7] = assay: microbe, parasite or virus in culture; conditions: Dengue virus, Huh7.5, read-out: EC50 (μM) for DENVR2A
Huh7 cells = assay: XTT cytotoxicity assay in Huh7 cells; assay type: cell-based, human; conditions: 0.4 to 400 μM, 72 hours
Experimental: Cytotoxicity properties were titrated by metabolism monitoring using the XTT [2,3-bis-(2-methoxy-4-nitro-5-sulfophenyl)-2H-tetrazolium-5-carboxanilide] assay kit (Roche, Millipore Sigma), as described before ([24]). Briefly, Huh7 cells were seeded at 10 × 10^3 cells per well in 96-well plates. […] After 72 h of incubation, medium was replaced by phenol-free DMEM (Wisent) containing 0.3 mg/ml XTT, and cells were incubated for 4 h. Absorbance was measured at 450nm using a microplate spectrophotometer (Synergy H1, Biotek). Treatment conditions with 0.5% DMSO were used as the reference control. The percentage of cell viability was calculated at each concentration.

## C#C[C@@]1(O)[C@H](O)[C@@H](CO)O[C@H]1n1ccc2c(N)ncnc21 [NITD008, reference compound]
DENV2 16881s
  production of DENV infectious particles (words): completely hindered the production of infectious particles
ZIKV MR766
  production of ZIKV MR766 infectious particles (words): completely hindered the production of infectious particles
ZIKV H/PF/2013
  production of ZIKV H/PF/2013 infectious particles (words): completely hindered the production of infectious particles
PBMCs
  cytotoxicity in PBMCs: cytotoxic in PBMCs
DENVGFP [1]; added at 0, 2, 4, 7, or 12 hpi
  time of drug addition: effect on DENVGFP-infected Huh7 cells 72 hpi: abrogated GFP expression
DENVGFP [1]; added at 24 hpi, cherylline 50 μM
  time of drug addition: effect on DENVGFP-infected Huh7 cells 72 hpi: Low levels of infection rose

## COc1cc2c(cc1OC)-c1cc3ccc(OC)c(OC)c3c[n+]1CC2 [Palmatine]
DENV
  EC50: 26.4 µM

## O[C@H]1[C@H]2c3cc4c(cc3CN3CCC(=C[C@@H]1O)[C@H]23)OCO4 [Lycorine, lycorine]
DENVGFP [2]
  anti-DENV activity in screening (GFP microscopy, words): sharp decrease in DENV-GFP-infected cells
[3]
  CC50 at 48 h: 14.5 µM
ZIKV NS5 RdRp
  inhibition of ZIKV NS5 RdRp activity in vitro: 80%
West Nile virus NS5
  effect on West Nile virus NS5: no effect
DENVR2A [4]
  SI DENVR2A (therapeutic selectivity index): 90.6
ZIKVR2A [5]
  EC50: 0.41 µM
ZIKVR2A [6]
  SI ZIKVR2A (therapeutic selectivity index): 35.4
DENVR2A [7]
  EC50: 0.16 µM
Huh7 cells
  cytotoxic activity of AAs: cytotoxic
